In ChEMBL document CHEMBL1144348, “Mechanism of cytotoxicity of copper(I) complexes of 1,2-bis(diphenylphosphino)ethane” (J Med Chem, 2005):
Values after ≈ are worked out from the molar mass of the structure shown.

How the values were obtained:
[1] = tested on: NCI-H460; assay: Inhibitory concentration against human lung carcinoma cell line H460 after 48 hr in MTT assay; type: functional, cell-based; conditions: NCI-H460, 48 h
[2] = tested on: NCI-H460; assay: Percent of cells with COMET measured after single cell gel electrophoresis with the compound; type: functional, Homo sapiens

SMILES | IC50 [1] [µg/mL] | Activity [2] [%]
c1ccc(P(CCP(c2ccccc2)c2ccccc2)c2ccccc2)cc1 | 0.25 (≈ 0.627 µM) | 
COc1cccc2c1C(=O)c1c(O)c3c(c(O)c1C2=O)C[C@@](O)(C(=O)CO)C[C@@H]3O[C@H]1C[C@H](N)[C@H](O)[C@H](C)O1 [DOXORUBICIN] | 0.05 (≈ 0.092 µM) | 93.55
